Among the test systems are A549; ACHN; BT-549; CCRF-CEM; DU-145; EKVX; HCC 2998; HOP-62; M14; NCI-H226; NCI-H23; NCI-H460; NCI-H522; NCI/ADR-RES; PC-3; SK-MEL-2; SK-MEL-5; U-251; UO-31; MDA-MB-435.
What all share (experiment): NCI tumour cell line growth inhibition, 48 h

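48-hour exposure; five concentrations; linearly interpolated endpoints. Here, GI50 denotes the concentration required for 50% inhibition of growth.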 Active and inactive are the calls of the source. Rule as the data show it: active = GI50 up to about 1.1 µM and inactive = higher.

With `CCCCS(=O)(=O)CCC(N)C(=O)O` (stereo not given), the GI50 with A549, with ACHN, in the assay with BT-549, in the assay on CCRF-CEM, with DU-145 and in the assay with EKVX was > 100 µM (inactive) throughout. In addition, the GI50 in the assay on HCC 2998, in the assay on HOP-62, with M14, in the assay on NCI-H226, in the assay on NCI-H23 and in the assay on NCI-H460 was > 100 µM (inactive) throughout. For the same compound, the GI50 in the assay on NCI-H522, in the assay on NCI/ADR-RES, in the assay with PC-3, in the assay with SK-MEL-2, with SK-MEL-5 and with U-251 was > 100 µM (inactive) each time. The GI50 in the assay on UO-31 was > 100 µM (inactive).
For `COP(=O)(CP(=O)(OC)OCCC(C)CCC=C(C)C)OC` (stereo not given), the GI50 in the assay on A549, in the assay on ACHN, with BT-549, in the assay on CCRF-CEM, with EKVX and in the assay with HCC 2998 was > 100 µM (inactive) throughout. Moreover, the GI50 in the assay with HOP-62 was 69.7 µM (inactive); in the assay with M14 it was > 100 µM (inactive); in the assay on MDA-MB-435, > 100 µM (inactive); with NCI-H226 it was > 100 µM (inactive); in the assay with NCI-H23, > 100 µM (inactive); in the assay with NCI-H460, > 100 µM (inactive). Moreover, the GI50 in the assay with NCI-H522 is > 100 µM (inactive); in the assay on NCI/ADR-RES, > 100 µM (inactive); in the assay on PC-3, > 100 µM (inactive); in the assay on SK-MEL-2 it was > 100 µM (inactive); with SK-MEL-5 it was > 100 µM (inactive); in the assay on U-251, 26.7 µM (inactive). In addition, in the assay with UO-31, the GI50 is > 100 µM (inactive).
As for `Cc1ccc(S(=O)(=O)N/N=C2\CC3C4CCC3C2C4)cc1` (stereo not given), the GI50 in the assay with A549, in the assay with ACHN, in the assay with CCRF-CEM, in the assay on DU-145, in the assay with EKVX and in the assay on HCC 2998 was > 100 µM (inactive) each time. For the same compound, the GI50 with HOP-62, in the assay with M14, with MDA-MB-435, in the assay with NCI-H226, in the assay with NCI-H23 and with NCI-H460 was > 100 µM (inactive) throughout. For the same compound, the GI50 with NCI-H522, in the assay on NCI/ADR-RES, with PC-3, with SK-MEL-2, with SK-MEL-5 and with U-251 was > 100 µM (inactive) each time. Further, the GI50 in the assay with UO-31 was > 100 µM (inactive).
Regarding `Cc1[nH]c(=O)nc(NCCNCCO)c1C(=O)Nc1c2ccccc2nc2ccccc12`, the GI50 with A549, in the assay on ACHN, with CCRF-CEM, in the assay with DU-145, in the assay with EKVX and in the assay on HCC 2998 was > 100 µM (inactive) throughout. The GI50 with HOP-62, in the assay with M14, with MDA-MB-435, with NCI-H226, with NCI-H23 and with NCI-H522 was > 100 µM (inactive) in each case. The GI50 in the assay on NCI/ADR-RES, in the assay on PC-3, in the assay on SK-MEL-2, in the assay with SK-MEL-5, with U-251 and in the assay on UO-31 was > 100 µM (inactive) each time.
Regarding `CC(C)Nc1n[nH]c(=O)n1C(C)C`, the GI50 with A549, with ACHN, in the assay on BT-549, in the assay on CCRF-CEM, in the assay on DU-145 and in the assay with EKVX was > 100 µM (inactive) throughout. In addition, the GI50 is > 100 µM (inactive) in the assay with HOP-62; > 100 µM (inactive) in the assay with M14; > 100 µM (inactive) in the assay on MDA-MB-435; 81.5 µM (inactive) with NCI-H226; > 100 µM (inactive) with NCI-H23; > 100 µM (inactive) in the assay with NCI-H460. In addition, the GI50 in the assay with NCI/ADR-RES, with PC-3, with SK-MEL-2, with SK-MEL-5, with U-251 and in the assay on UO-31 was > 100 µM (inactive) throughout.
Consider `CC[n+]1cnc(N)c2c(-c3ccc(Cl)cc3)cn(-c3ccc(C)cc3)c21`, for which the GI50 was 12.7 µM (inactive) in the assay with A549; 12.9 µM (inactive) in the assay on ACHN; 6.89 µM (inactive) with CCRF-CEM; 17.9 µM (inactive) with DU-145; 14.8 µM (inactive) in the assay with EKVX; 4.33 µM (inactive) with HCC 2998. Also, the GI50 with HOP-62 was 16.8 µM (inactive); in the assay on M14, 1.94 µM (inactive); in the assay with MDA-MB-435, 11.5 µM (inactive); in the assay with NCI-H226, 13.2 µM (inactive); with NCI-H23, 19.1 µM (inactive); in the assay with NCI-H460, 15.7 µM (inactive). Moreover, the GI50 was 15.5 µM (inactive) in the assay on NCI-H522; 12.9 µM (inactive) with NCI/ADR-RES; 10.5 µM (inactive) with PC-3; 18.7 µM (inactive) with SK-MEL-2; 10.3 µM (inactive) in the assay on SK-MEL-5; 11.9 µM (inactive) in the assay on U-251. For the same compound, in the assay on UO-31, the GI50 is 9.93 µM (inactive).
With `COC1CC(CC2CCC(C)C(C(C)C(=O)O)O2)OC2(OC(C)(C3CCC(C)(C4OC(C5OC(O)(CO)C(C)CC5C)CC4C)O3)CC2C)C1C` (stereo not given), the GI50 was 0.111 µM (active) in the assay with A549; 0.964 µM (active) in the assay with ACHN; 0.3 µM (active) with BT-549; 0.0228 µM (active) in the assay on CCRF-CEM; 3.85 µM (inactive) with DU-145; 2.15 µM (inactive) in the assay with EKVX. Also, the GI50 was 0.186 µM (active) with HCC 2998; 0.522 µM (active) with HOP-62; 1.8 µM (inactive) in the assay on M14; 1.75 µM (inactive) in the assay on MDA-MB-435; 1.21 µM (inactive) in the assay on NCI-H226; 0.295 µM (active) in the assay on NCI-H23. Further, the GI50 in the assay on NCI-H460 is 0.402 µM (active); in the assay on NCI-H522 it was 0.0217 µM (active); with PC-3 it was 0.552 µM (active); in the assay on SK-MEL-2 it was 0.646 µM (active); with SK-MEL-5 it was 0.156 µM (active); in the assay on U-251, 0.0836 µM (active). In addition, the GI50 with UO-31 was 1.79 µM (inactive).
Take `CN(C)c1nc(Cl)c2c(-c3ccccc3)c(-c3ccccc3)oc2n1`: the GI50 is 98.2 µM (inactive) with A549; 70 µM (inactive) in the assay on ACHN; 29.7 µM (inactive) with BT-549; 28.1 µM (inactive) with CCRF-CEM; 52.4 µM (inactive) in the assay with DU-145; > 100 µM (inactive) in the assay on EKVX. For the same compound, the GI50 is 64.6 µM (inactive) in the assay on HCC 2998; > 100 µM (inactive) with M14; > 100 µM (inactive) in the assay with MDA-MB-435; > 100 µM (inactive) with NCI-H226; 41.3 µM (inactive) in the assay with NCI-H23; 17.5 µM (inactive) in the assay with NCI-H522. Besides, the GI50 in the assay on NCI/ADR-RES was 82.4 µM (inactive); in the assay on SK-MEL-5 it was 41.7 µM (inactive); in the assay with U-251, > 100 µM (inactive); with UO-31, > 100 µM (inactive).
As for `C[C@@H](C1CC[C@H]2[C@@H]3[C@@H]4O[C@@H]4[C@@]4(O)CC=CC(=O)[C@]4(C)[C@H]3C[C@H](O)[C@]12C)[C@H]1C[C@]2(C)O[C@]2(C)C(=O)O1` (stereo not given in full), the GI50 in the assay with A549 was > 100 µM (inactive); with ACHN, > 100 µM (inactive); with CCRF-CEM, 56.6 µM (inactive); with DU-145 it was > 100 µM (inactive); with EKVX, > 100 µM (inactive); with HCC 2998, > 100 µM (inactive). Besides, the GI50 with M14, in the assay on MDA-MB-435, in the assay on NCI-H226, in the assay with NCI-H23, with NCI-H460 and in the assay on NCI-H522 was > 100 µM (inactive) in each case. Moreover, the GI50 in the assay on NCI/ADR-RES, in the assay on PC-3, in the assay on SK-MEL-2, in the assay with SK-MEL-5, in the assay with U-251 and in the assay with UO-31 was > 100 µM (inactive) throughout.
For `O=C1OC(c2ccc([N+](=O)[O-])cc2)=N/C1=C\c1ccc(Cl)cc1`, the GI50 with A549, in the assay on ACHN, with BT-549, in the assay on CCRF-CEM, in the assay on DU-145 and in the assay with EKVX was > 100 µM (inactive) throughout. The GI50 in the assay with HCC 2998, in the assay with HOP-62, in the assay on M14, in the assay on MDA-MB-435, in the assay with NCI-H226 and with NCI-H23 was > 100 µM (inactive) in each case. The GI50 with NCI-H460, with NCI-H522, with PC-3, in the assay on SK-MEL-2, in the assay with SK-MEL-5 and in the assay on U-251 was > 100 µM (inactive) throughout.
Regarding `COc1cc([C@@H]2c3cc4c(cc3C[C@H]3COC(=O)[C@@H]32)OCO4)cc(OC)c1OC` [DESOXYPODOPHYLLOTOXIN], the GI50 with A549 was 0.00885 µM (active); in the assay with ACHN, 0.00393 µM (active); with BT-549 it was < 0.01 µM (active); in the assay with CCRF-CEM, 0.00865 µM (active); in the assay on DU-145, 0.00273 µM (active); in the assay on EKVX, 0.005 µM (active). Besides, the GI50 with HCC 2998 was 0.00791 µM (active); with HOP-62, 0.0127 µM (active); with M14, 0.004 µM (active); in the assay on MDA-MB-435 it was 0.00261 µM (active); in the assay with NCI-H226, 0.00733 µM (active); with NCI-H23 it was 0.00714 µM (active). For the same compound, the GI50 in the assay on PC-3 was 0.00353 µM (active); in the assay with SK-MEL-2, 0.0074 µM (active); in the assay with SK-MEL-5 it was 0.00791 µM (active); with U-251 it was 0.00634 µM (active); in the assay with UO-31 it was 0.0986 µM (active).

For the origin of these results see ChEMBL document CHEMBL1201862, “PubChem BioAssay data set” (2004).
